This is an account of results in patent US7132504B2, “Hepatitis C virus inhibitors” (Bristol-Myers Squibb Company, priority 2003, dated 2006).

In this assay the target is T1, HCV NS3/4A protease complex (UniProt P27958, C1454S/C1711G, species not given).
T1 construct: fused on or other part: Three-lysine solubilising tail at the C-terminus of NS4A
The assay is described as follows: Recombinant HCV NS3/4A protease complex FRET peptide assay (strain not stated). Particulars: NS3/4A protease enzyme assay, read-out: Activity Range IC50. Type of assay: biochemical. The text has this: The purpose of this in vitro assay was to measure the inhibition of HCV NS3 protease complexes, derived from the BMS strain, H77 strain or J416S strain, as described below, by compounds of the present invention. This assay provides an indication of how effective compounds of the present invention would be in inhibiting HCV proteolytic activity.
Serum from an HCV-infected patient was obtained from Dr. T. Wright, San Francisco Hospital. An engineered full-length cDNA (compliment deoxyribonucleic acid) template of the HCV genome (BMS strain) was constructed from DNA fragments obtained by reverse transcription-PCR (RT-PCR) of serum RNA (ribonucleic acid) and using primers selected on the basis of homology between other genotype 1a strains. From the determination of the entire genome sequence, a genotype 1a was assigned to the HCV isolate according to the classification of Simmonds et al. (See P Simmonds, K A Rose, S Graham, S W Chan, F McOmish, B C Dow, E A Follett, P L Yap and H Marsden, J. Clin. Microbiol., 31(6), 1493–1503 (1993)). […] The infectious clones, H77 (1a genotype) and J4L6S (1b genotype) were obtained from R. Purcell (NIH) and the sequences are published in Genbank (AAB67036, see Yanagi, M., Purcell, R. H., Emerson, S. U. and Bukh, J. Proc. Natl. Acad. Sci. U.S.A. 94(16), 8738–8743 (1997); AF054247, see Yanagi, M., St Claire, M., Shapiro, M., Emerson, S. U., Purcell, R. H. and Bukh, J, Virology 244 (1), 161–172. (1998)).
The H77 and J4L6S strains were used for production of recombinant NS3/4A protease complexes. DNA encoding the recombinant HCV NS3/4A protease complex (amino acids 1027 to 1711) for these strains were manipulated as described by P. Gallinari et al. (see Gallinari P, Paolini C, Brennan D, Nardi C, Steinkuhler C, De Francesco R. Biochemistry. 38(17):5620–32, (1999)). Briefly, a three-lysine solubilizing tail was added at the 3′-end of the NS4A coding region. The cysteine in the P1 position of the NS4A–NS4B cleavage site (amino acid 1711) was changed to a glycine to avoid the proteolytic cleavage of the lysine tag. Furthermore, a cysteine to serine mutation was introduced by PCR at amino acid position 1454 to prevent the autolytic cleavage in the NS3 helicase domain. The variant DNA fragment was cloned in the pET21b bacterial expression vector (Novagen) and the NS3/4A complex was expressed in Escherichia. coli strain BL21 (DE3) (Invitrogen) following the protocol described by P. Gallinari et al. (see Gallinari P, Brennan D, Nardi C, Brunetti M, Tomei L, Steinkuhler C, De Francesco R., J Virol. 72(8):6758–69 (1998)) with modifications. Briefly, the NS3/4A protease complex expression was induced with 0.5 millimolar (mM) Isopropyl β-D-1-thiogalactopyranoside (IPTG) for 22 hours (h) at 20° C. A typical fermentation (1 Liter (L)) yielded approximately 10 grams (g) of wet cell paste. The cells were resuspended in lysis buffer (10 mL/g) consisting of 25 mM N-(2-Hydroxyethyl)Piperazine-N′-(2-Ethane Sulfonic acid) (HEPES), pH 7.5, 20% glycerol, 500 mM Sodium Chloride (NaCl), 0.5% Triton X-100, 1 microgram/milliliter (“μg/mL”) lysozyme, 5 mM Magnesium Chloride (MgCl2), 1 μg/ml Dnasel, 5 mM β-Mercaptoethanol (βME), Protease inhibitor—Ethylenediamine Tetraacetic acid (EDTA) free (Roche), homogenized and incubated for 20 minutes (min) at 4° C. The homogenate was sonicated and clarified by ultra-centrifugation at 235000 g for 1 h at 4° C. Imidazole was added to the supernatant to a final concentration of 15 mM and the pH adjusted to 8.0. The crude protein extract was loaded on a Nickel—Nitrilotriacetic acid (Ni-NTA) column pre-equilibrated with buffer B (25 mM HEPES, pH 8.0, 20% glycerol, 500 mM NaCl, 0.5% Triton X-100, 15 mM imidazole, 5 mM βME). The sample was loaded at a flow rate of 1 mL/min. The column was washed with 15 column volumes of buffer C (same as buffer B except with 0.2% Triton X-100). The protein was eluted with 5 column volumes of buffer D (same as buffer C except with 200 mM Imidazole). […]

With `C=CC1C[C@]1(NC(=O)[C@@H]1C[C@@H](Oc2cc(-c3ccccc3)nc3cc(OC)ccc23)CN1C(=O)[C@@H](NC(=O)OC)C(C)(C)C)C(=O)NS(=O)(=O)N(C)Cc1ccccc1` (stereo partly shown) [Compound 9], the IC50 (as a rule, the concentration that inhibits the measured activity by half) is under 150 nM.
